These results are taken from US20010039286A1, “2-aryl indole derivatives and their use as therapeutic agents” (priority 2000, published 2001).

As usually defined, the melting point is the temperature of the solid-liquid transition. For the molecule `Cl.OC1(Cc2ccccc2)CCN(CCCc2c(-c3ccc(Cl)cc3)[nH]c3ccc(Cl)cc23)CC1`, the melting point was in the range of 147 to 150 °C.
